In data set [1] the test system is MJD84.2 transgenic mice. The data set is described as follows: Local motor test in MJD84.2 transgenic mice (SCA3 mice). The class given is in vivo. Conditions: BP 100 or 500 mg/kg/bid, ligustilide 100 mg/kg/bid, versus untreated group and olive oil group; for total moving distance: Figure 5A; for moving times: Figure 5B; for moving time: Figure 5C. On the procedure: (§1) MJD84.2 transgenic mice (i.e., the mice being transfected with ATXN3 gene with human 84 CAG repeat sequence, hereinafter referred to as "SCA3 mice") were used in this experiment. MJD84.2 transgenic mice were an animal model used for studying spinal cerebellar atrophy.
(§2) The MJD84.2 transgenic mice of […] were randomly divided into five groups, each group had six mice. The mice were treated with the following conditions for two weeks: (1) untreated group; (2) treated with olive oil (i.e., only treated with the adjuvant); (3) treated with 100 mg/kg/bid (bis in die) of BP; (4) treated with 500 mg/kg/bid of BP; (5) treated with 100 mg/kg/bid of ligustilide. The wild type mice (WT) was used as a control group. After 2 weeks, local motor and rotarod test were conducted.
Local motor test was performed to test the exercise ability of mice. 10-week-old mice were tested on rotarod once every three weeks. Then, the mice were placed in a transparent acrylic box 2 hours and were free to move. A behavioral test was conducted for 1 hour by using VersaMax 420 (AccuscanInstrumentsInc, USA), and the data was analyzed by statistical methods.

Data set [2] has as its system MJD84.2 transgenic mice. The data set is described as follows: Rotarod test in MJD84.2 transgenic mice (SCA3 mice). Format: in vivo. The conditions noted are these: BP 100 or 500 mg/kg/bid, ligustilide 100 mg/kg/bid; versus untreated group and olive oil group; Figure 6. On the procedure:
as §1, §2
Rotarod test was performed to test the balance and grip ability of mice. The mice were given practice two weeks before the first behavioral test. The experiment was conducted using an IITC rotarod (IITC Life Science Inc, USA). 10-week-old mice were tested on a rotarod once every three weeks. The test condition was set as a linear acceleration from 4 to 40 rpm within 300 seconds. The time (sec) that the mice fell from the rotarod (i.e., latency to fall) was recorded. […] After the rotarod test, the body weight of the mice were recorded. […]

The test system of data set [3] is zebrafish. Kind of data set: Behavioral test in zebrafish injected with ATXN3 MO (tail stimulation). Format: in vivo. The conditions noted are these: Figure 3. On the procedure:
Morpholinos (MO) was produced by modifying the structure of a fragment of DNA, which can block protein translation process of mRNA to inhibit the expression of a target protein. The ATXN3 MO used in this experiment has a sequence of 5'-[…]-3' (SEQ ID NO. : 1), and the standard used in the control group is 5'-[…]-3' (SEQ ID NO. : 2) (hereinafter referred to as "Ct MO"). Before injection, the MO was dissolved in ddH2O, stored at -20°C for used. Zebrafish eggs were micro-injected within about one hour after birth. After 21 to 48 hours post fertilization (hpf), the zebrafish eggs were micro-injected with ATXN3 MO or ATXN3 MO in combination with 250 mg/kg BP, 125 mg/kg BP or 62.5 mg/kg BP. After 48 hours, the fish tails were stimulated by tips, and the number of stimulation causing movement of the fish tails was measured.

The test system of data set [4] is ATXN3 protein. Kind of data set: In vitro cell test: GFP-ATXN3 protein aggregation/expression in transfected cells by fluorescence microscopy. The conditions noted are these: pEGFP-C1-Ataxin3Q84 transfected HEK 293T or neural stem cells; 5 µg/ml for 24 hours; versus untreated groups; Figure 1. Format: cell-based, human. Here is the method: In this experiment, the effects of BP and ligustilide on the protein expression level of SCA3 protein were analyzed. Frist, pEGFP-C1-Ataxin3Q84 plasmid (i.e., a plasmid comprising Ataxin gene with abnormal CAG repeat number (84Q)) containing green fluorescent protein or pEGFP-C1-Ataxin3Q28 plasmid (i.e., a plasmid comprising Ataxin gene with normal CAG repeat number (28Q)) (Addgene company, U.S.) was transfected into human embryonic kidney (HEK) cells 293T (Bioresource Collection and Research Center, Taiwan) or neural stem cells (NSC). The cells were then cultured in a DMEM medium (Dulbecco's modified Eagle's medium, Thermo) containing 10% fetal bovine serum (Gibco), and incubated in an incubator with 5% CO2 at 37°C. Then, the cells were treated with 5 µg/ml BP (A10353, purchased from Alfa Aesar, U.S.; with a purity of 95%) or ligustilide (5393-015M1, purchased from Pharmaron, China) for 24 hours. The protein aggregation of GFP-ATXN3 protein in the cells of each group was observed by a fluorescence microscopy. Wild type cells and cells transfected with green fluorescent protein (GFP) were used as the control group.

In data set [5] the test system is ubiquitin. Kind of data set: Western blotting of cerebellum tissue of SCA3 mice, anti-ubiquitin antibody. The conditions noted are these: mice treated with BP, versus untreated and olive oil groups, Figure 9. Format: in vivo. On the procedure:
(§3) The MJD84.2 transgenic mice (i.e., the mice with modified ATXN3 gene) of eight weeks of age were randomly divided into five groups, with six mice in each group. The mice were treated with the following conditions: (1) untreated group; (2) treated with olive oil; (3) treated with 100 mg/kg/bid of BP; (4) treated with 500 mg/kg/bid of BP; (5) treated with 100 mg/kg/bid of ligustilide. Then, the mice were sacrificed at the age of 20 weeks and 24 weeks. Cerebellar slices staining and tissue protein extraction were performed (see Example 5). Whole brain tissue of the mice was fixed overnight with 3.7% formalin and embedded in paraffin. The samples were sectioned (4 µm) by using a Quanto kit (Thermo, USA) and mounted on a microscope slide.
(§4) The cerebellums of the mice sacrificed in example 4 were separated from the whole brain, and the proteins in the cerebellums were extracted. The purified proteins were analyzed by Western blotting assay using an anti-ubiquitin antibody and an anti-calbindin antibody, respectively, to determine the changes in the protein expression level of ubiquitin and calbindin in the cerebellum tissue of SCA3 mice in each group. β-actin was used as an internal control group.

Data set [6] relates to calbindin. Kind of data set: Western blotting of cerebellum tissue of SCA3 mice, anti-calbindin antibody. The conditions noted are these: BP 100 or 500 mg/kg/bid, ligustilide 100 mg/kg/bid, versus untreated and olive oil groups, Figure 8. The class given is in vivo. Here is the method:
as §3, §4

Data set [7] has as its system motor neurons. The data set is described as follows: Confocal microscopy test of motor neurons in zebrafish injected with ATXN3 MO. Format: in vivo. Conditions: ATXN3 MO in combination with 250 mg/kg BP; after 48 hours; Figure 4. Here is the method: Zebrafish eggs were micro-injected with 300 nM/µl ATXN3 MO, 250 mg/kgBP, or ATXN3 MO in combination with 250 mg/kgBP, 125 mg/kg BP or 62.5 mg/kgBP. After 48 hours, the zebrafishes were enclosed in glass slides. The motor neurons in the living body were recorded by a confocal fluorescence microscopy.

The nature of data set [8]: Safe dose test (toxicity of BP to zebrafish, survival rate). Conditions: in vivo, after 48 hours, 28.5°C, Figure 2, read-out: survival rate of the zebrafishes. Here is the method:
In this experiment, the zebrafishes that were used as the animal models in the experimental group were Tg (HuC:GFP), which is characterized by its primary sensory neurons (Rohon-Beard cells) that can produce fluorescence. The zebrafishes used in the control group were wild type zebrafishes. All of the zebrafishes were provided by TZCAS (Taiwan Zebrafish Core Facility at Academia Sinica, Taiwan) and TZCF (Taiwan Zebrafish Core Facility, Taiwan). First, the toxicity of BP to zebrafish was tested by injecting different dose of BP to zebrafishes. The zebrafishes were then kept at 28.5°C. After 48 hours, the survival rate of the zebrafishes was observed.

Data set [9] relates to Purkinje cells. Kind of data set: Immunohistochemistry staining of cerebellar slices of SCA3 mice. The class given is in vivo. The conditions noted are these: cerebellum slices; BP 100 or 500 mg/kg/bid, ligustilide 100 mg/kg/bid; sacrificed at 20 and 24 weeks; versus untreated and olive oil groups; Figure 7. On the procedure: as §3

These results are taken from patent EP3165222A1, “USE OF PHTHALIDE COMPOUND” (Everfront Biotech Inc., priority 2014, dated 2016).

Like-named read-outs stand apart in the source and are kept apart here.

Consider `CCCC=C1OC(=O)c2ccccc21` [BP, n-butylidenephthalide], for which, in [1], the total moving distance entry is reported as “higher”, the moving times entry is given as “higher” and the moving time entry is listed as “higher”. For the same compound, the “balance and grip ability (latency to fall)” value in data set [2] is on record as “better”. Besides, the “restoring the behavioral ability of the diseased zebrafishes” value in data set [3] (250 mg/kg BP compared with the other BP doses) was “the most obvious effect”. For the same compound, in data set [3] (ATXN3 MO in combination with 250, 125 or 62.5 mg/kg BP, after 48 hours, versus ATXN3 MO alone), the “amount of stimulation-caused movement of fish tails” value is recorded as “restored (i.e., decreased)”. In addition, the “fluorescent signal of Ataxin3Q84” value in data set [4] is “significantly lower”. Also, in data set [5], the “content of the ubiquitin ubiquitination proteins” value is listed as “significantly higher”. In addition, in data set [6], the “protein expression level of calbindin” value is on record as “significantly higher”. Further, in [7], the “number of motor neurons” value is listed as “can maintain the number of motor neurons”. The survival at 48 h in [8] (50 mg/kg BP injected) was above 75%. Also, in data set [8] (250 mg/kg BP injected), the survival at 48 h was above 75%. The survival at 48 h in data set [8] (500 mg/kg BP injected) is 50%. Further, in data set [9], the “number of Purkinje cells” value is listed as “significantly higher”.
For the compound `CCCC=C1OC(=O)C2=C1CCC=C2` [ligustilide, 3-butylidene-4,5-dihydrophthalide], in data set [1], the total moving distance entry is on record as “higher”, the moving times entry is recorded as “higher” and the moving time entry was “higher”. The “balance and grip ability (latency to fall)” value in data set [2] is listed as “better”. Besides, in data set [4], the “fluorescent signal of Ataxin3Q84” value was “significantly lower”. For the same compound, the “protein expression level of calbindin” value in data set [6] was “significantly higher”. In addition, the “number of Purkinje cells” value in [9] is “significantly higher”.
